Calls of active or inactive are those of the source.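 Rule for the calls: active = compounds giving half or more protection of infected cells from virus-caused growth loss, again on retest; inactive = the rest.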 Where a SMILES comes first, the peptide text is derived from it. [ ]: non-standard residue; d: D form. The star is where a group is joined. Iva = CC[C](C)(N)C(=O)O; Boc = CC(C)(C)OC(=O)*; X8 = C1CCC(=NO*)C1
Tested on: CEM cells HIV-1 protection, formazan growth assay
Assay: NCI AIDS Antiviral Assay
Settings: for IC50: measured here: growth of uninfected CEM cells
Outline: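 Human CEM cells, uninfected and HIV-1-infected, exposed to five drug concentrations; growth measured by soluble formazan assay and scored as percent protection from infection, with protecting compounds retested.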

| Structure (SMILES) | EC50 [µM] | IC50 [µM] | outcome |
| --- | --- | --- | --- |
| [N-]=[N+]=NCc1nc(N)c2c3c(sc2n1)CCCC3 | > 200 | 1.12 |  |
| O=C(/C(=N/N(C(=O)c1ccccc1)c1ccccc1)c1ccccc1)c1ccccc1 |  |  | inactive |
| N#Cc1c(O)c(C=O)c(=O)n2c1[nH]c1ccccc12 | > 200 | 170 |  |
| BrCC[N+]12CC[N+](CCBr)(CC1)C2 | > 525 | 25.7 |  |
| CC(C)C1N(N2C(=O)CS(=O)(=O)C2C(C)C)C(=O)CS1(=O)=O (stereo not given) | > 200 | > 200 |  |
| O=c1c2cc(Br)ccc2nc(-c2ccccc2)n1NCC1(O)OCC(O)C(O)C1O (stereo not given) |  |  | inactive |
| O=C(NCCS(=O)(=O)N1C(=O)C2CCCN2C(=O)[C@@H]1Cc1ccccc1)OCc1ccccc1 (stereo not given in full) | > 100 | 53.7 |  |
| CC[n+]1cnc(N)c2c(-c3ccc(Cl)cc3)cn(-c3ccc(C)cc3)c21 | > 200 | 12.3 |  |
| CC(=O)NNc1nc(C)c(C(/C=C/c2ccccc2O)=N/N=C(N)N)s1 | > 89.1 | > 89.1 |  |
| O=C(Nc1cc(Cl)c(Cl)cc1Cl)C(=O)C1C(=O)NC(=S)NC1=O |  |  | inactive |
| CC1(C)C2CCC(=O)C1C(OCc1ccccc1)C2 (stereo not given) | > 200 | 95.5 |  |
| CC(C(=O)c1ccc(Cl)cc1)/C(=N/NC(=O)NN)C(=O)Nc1cccc(C(F)(F)F)c1 (stereo not given) | > 79.4 | > 79.4 |  |
| CC(C)CC(=O)N1CCN(C(=O)CC(C)C)c2ccccc21 | > 603 | 589 |  |
| CC(C)(C)CS(=O)(=O)O.[Ag] | > 200 | 10.5 |  |
| CCOC(=O)c1c2cccccc-2nc1Nc1ccccc1N1C=CC(C)C(C(=O)OC)=C1C(=O)OC (stereo not given) | > 200 | 129 |  |
| Cc1c(Cc2ccccc2)c(=O)oc2cc(O)ccc12 | > 97.7 | 93.3 |  |
| C=C1CC(Cn2ccc(=O)[nH]c2=O)(c2ccc(Cl)cc2)OC1=O (stereo not given) | > 20 | 0.912 |  |
| CC(=O)Nc1cccc(N2C(=O)/C(=C\c3cccc(Oc4ccccc4)c3)S(=O)(=O)C2c2ccccc2)c1 (stereo not given) | > 200 | 34.7 |  |
| CN(C)c1ccc(N=Nc2ccc3nc[nH]c3c2)cc1 | > 200 | 41.7 |  |
| N=c1oc2ccccc2cc1-c1nc2ccccc2c(=O)[nH]1 |  |  | inactive |
| [Cu+2].[O-]/C(=N\N=C/c1ccccc1F)c1ccncc1.[O-]/C(=N\N=C\c1ccccc1F)c1ccncc1 | > 100 | 16.2 |  |

| Structure (SMILES) | EC50 [µM] | IC50 [µM] | outcome |
| --- | --- | --- | --- |
| O=C(Nc1ccc(Cl)cc1)c1cc2cc(N=Nc3ccc(Br)cc3)ccc2oc1=O |  |  | inactive |
| Cc1cn([C@H]2C(CO)[C@@H](CO)C2(C)C)c(=O)[nH]c1=O (stereo not given in full) | > 933 | > 933 |  |
| CCc1cc(-c2ccc(OC)cc2)c(C#N)c(=S)n1C1OC(CO)C(O)C(O)C1O (stereo not given) | > 200 | 126 |  |
| Nc1nc(-c2ccco2)cc(-c2ccco2)n1 | > 115 | > 115 |  |
| Cc1ccc(C)c(NC(=O)C(=O)C2C(=O)C3=C(CC2(C)C)Nc2ccccc2S3)c1 (stereo not given) | > 85.1 | > 85.1 |  |
| O=S(=O)(c1ccccc1)C(c1ccc2ccccc2n1)S(=O)(=O)c1ccccc1 | > 200 | 41.7 |  |
| O=C(O)c1cccc(-c2c3ccc(=O)cc-3oc3cc(O)ccc23)c1 | > 316 | 53.7 |  |
| CC(=O)Oc1c(OC(C)=O)c(-c2ccc(O)c(O)c2)c(O)c(O)c1-c1ccc(O)cc1 | > 200 | 27.5 |  |
| COc1cccc(/C=C(\C#N)C(=O)O)c1 | > 1230 | 158 |  |
| CC(=O)NC(CCCCNCc1ccccc1)C(=O)NCc1ccccc1 (stereo not given) | > 676 | > 676 |  |
| O=C1c2cc3c(cc2CC12Cc1cc4c(cc1C2=O)CCC4)CCC3 | 158 | > 200 |  |
| CN1C2c3ccccc3C3C4c5ccccc5C(C31)C(C2[N+](=O)[O-])N4C (stereo not given) | > 43.7 | 27.5 |  |
| O=C(ON=C1c2ccccc2C(Br)C(Br)c2ccccc21)c1ccccc1 (stereo not given) | > 200 | 3.31 |  |
| Cc1oc(C)c2c1C(=O)c1ccccc1C2=O | > 200 | 123 |  |
| CN(C)CCNC(=O)Cn1ccc(=O)c2ccc([N+](=O)[O-])cc21 | > 200 | > 200 |  |
| CC(=O)NC1C(OCc2ccccc2)OC(COC(=O)CCCCCCCCCCNC(=O)CCNc2ccc([N+](=O)[O-])c3[nH]c4ccc(O)cc4c(=O)c23)C(O)C1OC(C)C(=O)N[C@H](C(=O)N[C@H](CCC(=O)O)C(N)=O)C(C)C (stereo not given in full) | > 224 | 87.1 |  |
| O=C(O)c1cc(=O)c2cc3c(cc2o1)OCc1ccccc1-3 | > 93.3 | > 93.3 |  |
| COc1cc(NS(C)(=O)=O)ccc1NCc1c2ccccc2nc2ccccc12 |  |  | inactive |
| O=[N+]([O-])c1ccc2nc(-c3ccccn3)c(-c3ccccn3)nc2c1 | > 200 | > 200 |  |
| COc1c2occc2c(N=Cc2ccccn2)c2ccc(=O)oc12 | > 39.8 | > 39.8 |  |
| O=C(O)CCC(=O)NCCOC(=O)CCC(=O)O | > 955 | > 955 |  |

| Structure (SMILES) | EC50 [µM] | IC50 [µM] | outcome |
| --- | --- | --- | --- |
| CCCCCCCCCCCCCCCC[N+](C)(C)Cc1ccccc1 | > 200 | 3.31 |  |
| Cc1cccc(NC(=S)N=Nc2c(O)[nH]c3ccccc23)c1 | > 200 | 117 |  |
| CCN(CC)c1ccc(N=C2C=CC(=O)c3ncccc32)c(C)c1 | > 11.7 | > 11.7 |  |
| CN1C(=O)C2C3C=C4c5ccccc5N(c5ccccc5)C4(C2C1=O)[C@H]1C(=O)N(C)C(=O)[C@@H]31 (stereo not given in full) | > 16.2 | > 16.2 |  |
| CC1=NOCC(=O)N1 | > 2190 | > 2190 |  |
| COc1ccc(NC(=S)N/N=C\c2ccc(NC(C)=O)cc2)cc1 |  |  | inactive |
| CCOC(=O)c1nc2cc(C(F)(F)F)ccc2nc1Nc1ccc(OC)c(OC)c1 |  |  | inactive |
| O=C(c1ccco1)[N+]1=Cc2[nH]c3ccccc3c2CC1 | > 170 | 97.7 |  |
| Cc1cc(Br)ccc1NC1=CC(=O)C(=O)c2ccccc21 | > 2.19 | > 2.19 |  |
| Cc1ccc(Cl)c(NC(=O)C(=O)C(C(=O)c2ccncc2)C2OC(=O)c3ccccc32)c1 (stereo not given) | > 562 | 166 |  |
| O=C(CCc1nc(=S)[nH][nH]1)Nc1ccccc1Cl | > 457 | > 457 |  |
| NC(=O)NC(=O)c1ccco1 | > 200 | > 200 |  |
| C[N+](C)(C)CC(=O)N/N=C(\C(=O)NC1=C(Cl)C(=O)c2ccccc2C1=O)C(C#N)c1nc(-c2ccc([N+](=O)[O-])cc2)cs1 (stereo not given) |  |  | inactive |
| CC(C)(C)C1CCC(C[Se]c2ccccc2)([N+](=O)[O-])CC1 (stereo not given) |  |  | inactive |
| Cc1[nH]c(NC(=O)C(=O)O)c(C#N)c1C | > 200 | > 200 |  |
| CC(C)(C)[Si](OC[C@H]1OC(=O)[C@@H]2CN(Cc3ccccc3)C[C@H]12)(c1ccccc1)c1ccccc1 | > 7.76 | > 7.76 |  |
| CCC(C)(NC(=O)C(C)NC(=O)OC(C)(C)C)C(=O)NC(C)C(=O)NC(C)(CC)C(=O)ON=C1CCCC1 (stereo not given) (Boc-A[Iva]A[Iva]-X8; configuration not given here) | > 200 | 83.2 |  |
| Cc1cc(-c2ccco2)oc(=O)c1NC(=O)c1cnccn1 | > 200 | > 200 |  |
| COc1ccc(-c2c3c(n(C4OC(CO)C(O)C(O)C4O)c(=S)c2C#N)CCCC3)cc1 (stereo not given) | > 200 | 55 |  |
| Clc1ccc(Cl)c(N=Nc2cc3c4c(c2)CCN4CCC3)c1 | > 100 | > 100 |  |
| COC(=O)[C@@H]1CN(C(=O)c2ccccc2)C(=O)N1C(=O)OCc1ccccc1 | > 200 | > 200 |  |

| Structure (SMILES) | EC50 [µM] | IC50 [µM] | outcome |
| --- | --- | --- | --- |
| O=C(C[n+]1ccccc1)NNC(=O)/C(=C/c1ccc2c(c1)OCO2)NC(=O)c1ccccc1 | > 7.76 | > 7.76 |  |
| CC(=O)OC[C@H]1OC(=O)C2O[C@H](c3ccccc3)OC21 (stereo not given in full) | > 200 | > 200 |  |
| [O-][n+]1c(CCl)nc2ccccc2c1-c1ccccc1F | > 34.7 | > 34.7 |  |
| N#CCCN(CCC#N)c1ccc(/C=C(/NC(=O)c2cc([N+](=O)[O-])ccc2Cl)C(=O)NN)cc1 | > 10.7 | > 10.7 |  |
| CC(c1ccc(Br)cc1)C(C(=O)O)C(=O)O (stereo not given) |  |  | inactive |
| COc1ccc(C2=C/C(=C/c3ccc(O)cc3O)C(=O)O2)cc1 | > 200 | 36.3 |  |
| CCOC(=O)C1=CN(Cc2ccccc2)C2ON=C(c3ccc(Cl)cc3)C2C1 (stereo not given) | > 200 | 31.6 |  |
| CCOC(=O)c1nc2cc(C(F)(F)F)ccc2nc1Nc1ccc(F)cc1 | > 200 | 12.3 |  |
| Cc1c(C)c2ccc3c(c2oc1=O)[C@@H](OC(=O)C12CCC(C)(C(=O)O1)C2(C)C)[C@@H](OC(=O)C12CCC(C)(C(=O)O1)C2(C)C)C(C)(C)O3 (stereo not given in full) | 0.245 | 123 |  |
| Cc1nc(C2CCC3C4CCC5=CC(=O)CCC5(C)C4CCC23C)co1 (stereo not given) |  |  | inactive |
| COc1ccc(/C(Cl)=C(\C=O)c2ccc(OC)c(OC)c2)cc1OC | > 251 | > 251 |  |
| Cc1ccc(S(=O)(=O)NNC(=O)c2cc(C(=O)NNS(=O)(=O)c3ccc(C)cc3)c(C)nc2C)cc1 | > 200 | 162 |  |
| CSc1ccc(/C=C2/C[N+](C)(C)C/C(=C/c3ccc(SC)cc3)C2=O)cc1 | > 129 | 12.3 |  |
| COc1c(C(=O)c2cc(Cl)cc(S(=O)(=O)N(C)C=O)c2OC)cc(Cl)cc1S(=O)(=O)N(C)C=O | > 46.8 | > 46.8 |  |
| O=c1c(O)c(O)c(=O)c(=O)c1=O |  |  | inactive |
| Cc1cn(C2CC(O)C(COC(=O)CCCCCCCCCCCN=[N+]=[N-])O2)c(=O)[nH]c1=O (stereo not given) | 10 | 21.4 |  |
| O=[N+]([O-])c1ccc2c(Nc3ccccc3-c3ccccc3Nc3c4ccccc4nc4cc([N+](=O)[O-])ccc34)c3ccccc3nc2c1 | > 2.29 | > 2.29 |  |
| Cc1cn(Cc2ccccc2CCO)c(=O)[nH]c1=O | 191 | 479 |  |
| CCC(=O)O[C@H](C)CC1SCCCS1 | > 214 | > 214 |  |
| NC(=O)N=C(N(Cc1ccccc1)Cc1ccccc1)N(Cc1ccccc1)Cc1ccccc1 | > 7.59 | 2.24 |  |
| CN1C2CCC1CC(O)C2 (stereo not given) | > 1780 | > 1780 |  |

Source: PubChem BioAssay AID179 (DTP/NCI, 2004)
